Values after ≈ are worked out from the molar mass of the structure shown. Positions of bridges follow the written chain, without caps; N, C: chain ends. Non-standard residues stand in square brackets, D forms with d. Residues, ends and D or L forms follow the SMILES beside them. Groups on a side chain read outwards from the residue. *: point of attachment. Palmitoyl(16-(5-tetrazolyl)) = O=C(CCCCCCCCCCCCCCCc1nnn[nH]1)*; Lys(CH2CO2H)2 = N[C@@H](CCCCN(CC(=O)O)CC(=O)O)C(=O)O; C17 diacid = O=C(O)CCCCCCCCCCCCCCCC(=O)*; Hyp = O=C(O)[C@@H]1C[C@@H](O)CN1; NTA = O=C(O)CN(CC(=O)O)CC(=O)*; hCys = N[C@@H](CCS)C(=O)O; Orn = NCCC[C@H](N)C(=O)O; Dap = NC[C@H](N)C(=O)O; AEEA = NCCOCCOCC(=O)O
Columns and labels:
physchem = experiment: physchem
Description: From a stock solution in vehicle, either H2O or 10 mM phosphate, containing 1 mg (as weighed) compound per ml, 8-11 aliquots are withdrawn and pH-adjusted individually with HCl/NaOH, to cover the whole pH range.

MC1 receptor = MC1 receptor (Homo sapiens, UniProt Q01726); experiment: biochemical
Chain of MC1 receptor (Q01726 whole entry): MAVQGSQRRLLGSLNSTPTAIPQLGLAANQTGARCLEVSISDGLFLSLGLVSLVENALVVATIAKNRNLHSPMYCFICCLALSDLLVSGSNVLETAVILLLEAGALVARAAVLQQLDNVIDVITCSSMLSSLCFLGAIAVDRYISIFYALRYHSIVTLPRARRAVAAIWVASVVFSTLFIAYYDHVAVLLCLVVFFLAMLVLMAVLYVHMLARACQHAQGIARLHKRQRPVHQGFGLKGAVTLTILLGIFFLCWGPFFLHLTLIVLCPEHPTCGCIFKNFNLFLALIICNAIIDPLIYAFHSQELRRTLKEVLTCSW
Summary of the method: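 Radioligand competition on membranes (25 μg/ml) of BHK cells stably expressing MC1, with 22 pM final 125I-NDP-α-MSH in 25 mM HEPES pH 7.4, Ca/Mg, EDTA, 0.1% HSA (or ovalbumin), 0.005% Tween 20. Incubated 90 min at 30 °C, filtered over PEI-treated GF/B; curves fitted by non-linear regression.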

## CC(=O)N[C@H]1CCCNC(=O)CC[C@@H](C(=O)N2CCC[C@H]2C(=O)N[C@@H](CO)C(=O)N[C@@H](CO)C(=O)N[C@@H](CO)C(=O)N[C@@H](CCCCN(CC(=O)O)CC(=O)O)C(=O)N[C@@H](CO)C(=O)N[C@@H](CO)C(=O)N[C@@H](CCCCNC(=O)COCCOCCNC(=O)CCCCCCCCCCCCCCCC(=O)O)C(N)=O)NC(=O)[C@H](Cc2c[nH]c3ccccc23)NC(=O)[C@H](CCCNC(=N)N)NC(=O)[C@@H](Cc2ccccc2)NC(=O)[C@H](Cc2c[nH]cn2)NC1=O [Example 57, Ac-c[Orn-His-D-Phe-Arg-Trp-Glu]-Pro-Ser-Ser-Ser-Lys(biscarboxymethyl)-Ser-Ser-Lys({2-[2-(16-carboxyhexadecanoylamino)ethoxy]ethoxy}acetyl)-NH2] (Ac-[Orn]H[dF]RWEPSSS[Lys(CH2CO2H)2]SSK([AEEA-C17 diacid])-NH2; lactam 1-6)
physchem; pH 6.8, Solubility Conc., pH 6.8, vehicle 10 mM phosphate
  solubility: 47 µM (≈ 105 µg/mL)
physchem; pH 7.1, Solubility Conc., pH 7.1, vehicle 10 mM phosphate
  solubility: 79 µM (≈ 177 µg/mL)
physchem; pH 7.4, Solubility Conc., pH 7.4, vehicle 10 mM phosphate
  solubility: 169 µM (≈ 379 µg/mL)
physchem; pH 7.5, Solubility Conc., pH 7.5, vehicle 10 mM phosphate
  solubility: 395 µM (≈ 886 µg/mL)
physchem; pH 7.5, vehicle 10 mM phosphate
  Solubility Conc.: 284 µM (≈ 637 µg/mL)
physchem; pH 7.6, Solubility Conc., pH 7.6, vehicle 10 mM phosphate
  solubility: 521 µM (≈ 1170 µg/mL)
physchem; pH 7.7, Solubility Conc., pH 7.7, vehicle 10 mM phosphate
  solubility: 408 µM (≈ 915 µg/mL)
physchem; pH 7.8, Solubility Conc., pH 7.8, vehicle 10 mM phosphate
  solubility: 524 µM (≈ 1180 µg/mL)
physchem; pH 8, Solubility Conc., pH 8.0, vehicle 10 mM phosphate
  solubility: 392 µM (≈ 879 µg/mL)
MC1 receptor
  Ki: > 10 µM

## CC(=O)N[C@H]1CSSC[C@@H](C(=O)N2CCC[C@H]2C(=O)N2CCC[C@H]2C(=O)N[C@@H](CCCCN)C(=O)N[C@@H](CCC(=O)O)C(=O)N[C@@H](CCCCN(CC(=O)O)CC(=O)O)C(=O)N[C@@H](CCCCNC(=O)COCCOCCNC(=O)CCCCCCCCCCCCCCCc2nnn[nH]2)C(N)=O)NC(=O)[C@H](Cc2c[nH]c3ccccc23)NC(=O)[C@H](CCCNC(=N)N)NC(=O)[C@@H](Cc2ccccc2)NC(=O)[C@H](Cc2c[nH]cn2)NC(=O)[C@H](CCC(=O)O)NC1=O [Example 63, Ac-c[Cys-Glu-His-D-Phe-Arg-Trp-Cys]-Pro-Pro-Lys-Glu-Lys(biscarboxymethyl)-Lys[(2-{2-[16-(tetrazol-5-yl)hexadecanoylamino]ethoxy}ethoxy)acetyl]-NH2] (Ac-CEH[dF]RWCPPKE[Lys(CH2CO2H)2]K([AEEA-Palmitoyl(16-(5-tetrazolyl))])-NH2; disulfide 1-7)
physchem; pH 3.8, Solubility Conc.
  solubility: 33 µM (≈ 75.7 µg/mL)
physchem; pH 4.2, Solubility Conc.
  solubility: 23 µM (≈ 52.8 µg/mL)
physchem; pH 4.6, Solubility Conc.
  solubility: 28 µM (≈ 64.3 µg/mL)
physchem; pH 5.1, Solubility Conc.
  solubility: 78 µM (≈ 179 µg/mL)
physchem; pH 6, Solubility Conc.
  solubility: 484 µM (≈ 1110 µg/mL)
physchem; pH 7.9, Solubility Conc.
  solubility: 451 µM (≈ 1030 µg/mL)
physchem; pH 8.1, Solubility Conc.
  solubility: 417 µM (≈ 957 µg/mL)
physchem; pH 8.5, Solubility Conc.
  solubility: 495 µM (≈ 1140 µg/mL)
physchem; pH 8.9, Solubility Conc.
  solubility: 465 µM (≈ 1070 µg/mL)
MC1 receptor
  Ki: > 10 µM

## CC(=O)N[C@H]1CCSSC[C@@H](C(=O)N2CCC[C@H]2C(=O)N2CCC[C@H]2C(=O)N[C@@H](CCCCN)C(=O)N[C@@H](CC(=O)O)C(=O)N[C@@H](CNC(=O)CN(CC(=O)O)CC(=O)O)C(=O)N[C@@H](CCCCNC(=O)COCCOCCNC(=O)CCCCCCCCCCCCCCCc2nnn[nH]2)C(N)=O)NC(=O)[C@H](Cc2c[nH]c3ccccc23)NC(=O)[C@H](CCCNC(=N)N)NC(=O)[C@@H](Cc2ccccc2)NC(=O)[C@H](CCC(N)=O)NC1=O [Example 66, Ac-c[homoCys-Gln-D-Phe-Arg-Trp-Cys]-Pro-Pro-Lys-Asp-Dap(BCMA)-Lys[(2-{2-[16-(tetrazol-5-yl)hexadecanoylamino]ethoxy}ethoxy)acetyl]-NH2] (Ac-[hCys]Q[dF]RWCPPKD[Dap](NTA)K([AEEA-Palmitoyl(16-(5-tetrazolyl))])-NH2; disulfide 1-6)
physchem; pH 4.8, Solubility Conc.
  solubility: 38 µM (≈ 82.5 µg/mL)
physchem; pH 6.4, Solubility Conc.
  solubility: 390 µM (≈ 847 µg/mL)
physchem; pH 6.5, Solubility Conc.
  solubility: 474 µM (≈ 1030 µg/mL)
physchem; pH 6.7, Solubility Conc.
  solubility: 447 µM (≈ 971 µg/mL)
physchem; pH 6.9, Solubility Conc.
  solubility: 455 µM (≈ 988 µg/mL)
physchem; pH 7.2, Solubility Conc.
  solubility: 461 µM (≈ 1000 µg/mL)
physchem; pH 7.4, Solubility Conc.
  solubility: 478 µM (≈ 1040 µg/mL)
physchem; pH 7.6, Solubility Conc.
  solubility: 507 µM (≈ 1100 µg/mL)
physchem; pH 8.1, Solubility Conc.
  solubility: 499 µM (≈ 1080 µg/mL)
MC1 receptor
  Ki: > 10 µM

## CC(=O)N[C@H]1CCSSC[C@@H](C(=O)N2CCC[C@H]2C(=O)N2CCC[C@H]2C(=O)N[C@@H](CCCCN)C(=O)N[C@@H](CC(=O)O)C(=O)N[C@@H](CNC(=O)CN(CC(=O)O)CC(=O)O)C(=O)N[C@@H](CCCCNC(=O)COCCOCCNC(=O)CCCCCCCCCCCCCCCc2nnn[nH]2)C(N)=O)NC(=O)[C@H](Cc2c[nH]c3ccccc23)NC(=O)[C@H](CCCNC(=N)N)NC(=O)[C@@H](Cc2ccccc2)NC(=O)[C@@H]2C[C@@H](O)CN2C1=O [Example 67, Ac-c[homoCys-Hyp-D-Phe-Arg-Trp-Cys]-Pro-Pro-Lys-Asp-Dap(BCMA)-Lys[(2-{2-[16-(tetrazol-5-yl)hexadecanoylamino]ethoxy}ethoxy)acetyl]-NH2] (Ac-[hCys][Hyp][dF]RWCPPKD[Dap](NTA)K([AEEA-Palmitoyl(16-(5-tetrazolyl))])-NH2; disulfide 1-6)
physchem; pH 3.3, Solubility Conc.
  solubility: 600 µM (≈ 1290 µg/mL)
physchem; pH 3.4, Solubility Conc.
  solubility: 420 µM (≈ 906 µg/mL)
physchem; pH 3.6, Solubility Conc.
  solubility: 250 µM (≈ 539 µg/mL)
physchem; pH 4.1, Solubility Conc.
  solubility: 37 µM (≈ 79.8 µg/mL)
physchem; pH 5.4, Solubility Conc.
  solubility: 38 µM (≈ 81.9 µg/mL)
physchem; pH 5.9, Solubility Conc.
  solubility: 207 µM (≈ 446 µg/mL)
physchem; pH 6.3, Solubility Conc.
  solubility: 482 µM (≈ 1040 µg/mL)
physchem; pH 6.4, Solubility Conc.
  solubility: 533 µM (≈ 1150 µg/mL)
physchem; pH 6.8, Solubility Conc.
  solubility: 587 µM (≈ 1270 µg/mL)
physchem; pH 7.3, Solubility Conc.
  solubility: 590 µM (≈ 1270 µg/mL)
MC1 receptor
  Ki: > 10 µM

— US20130012432A1, “Peptides for Treatment of Obesity” (Novo Nordisk A/S, priority 2010, published 2013)
